Assay results published in patent US8058227B2, “Method of treating fibrosis in a subject in need thereof comprising administering a composition comprising a CSD” (Medical University of South Carolina, priority 2006, dated 2011).
“Also recorded” adds a separate entry of the source. Where no end group is shown, it is not given here.

Tests used:
[1] = system: normal lung fibroblasts (NLF); experiment: Kinase (signaling) inhibitor treatment of NLF, Western blotting; assay type: cell-based, human; design: key to Collagen / Tenascin-C / ASMA / Ph-ERK / Ph-JNK / Ph-Akt: a decrease ↓; an increase ↑; no effect —; settings: for ASMA expression / Akt activation / ERK activation / JNK activation / collagen expression / tenascin-C expression: 10 μM inhibitor, result in words; for ASMA / Ph-Akt / Ph-ERK / Ph-JNK / Collagen / Tenascin-C: inhibitor 10 μM, serum-free medium, Western blotting; for ASMA / Ph-Akt / Ph-ERK / Ph-JNK: cell layer; for Collagen / Tenascin-C: culture medium
From the text: (§1) Fibroblasts were derived from lung tissue obtained at autopsy from scleroderma patients (SLF) and from age-, race-, and sex-matched normal subjects (NLF) and cultured as previously described (44). Cells were used in passages 2-4. The group of scleroderma patients fulfilled the criteria of American college of Rheumatology for the diagnosis of scleroderma with lung involvement. Normal human lung tissue was obtained from the Brain and Tissue Bank for Developmental Disorders (Baltimore, Md.) or from the National Disease Research Interchange (Philadelphia, Pa.). Scleroderma lung tissue was obtained from the Division of Pathology and Laboratory Medicine at the Medical University of South Carolina (MUSC). The study was approved by the Institutional Review Board for Human Subject Research at the MUSC.
(§2) U0126 (MEK inhibitor), SP600125 (JNK inhibitor), LY294002 (PI3 kinase inhibitor) and Akt inhibitor VIII were purchased from Calbiochem and dissolved in DMSO (mM). Cells in 6-well plates were treated with 10 μM of inhibitors in serum-free medium for 6 h (U0126) or 24 h for the other inhibitors prior to the harvesting of cells and medium.
(§3) Cell layers were harvested in boiling SDS-PAGE sample buffer; medium was dialyzed, lyophilized, and resuspended in sample buffer. Aliquots of culture medium or of cell layer representing material derived from the same number of cells was probed using the following primary antibodies and appropriate secondary antibodies. Culture medium: goat anti-human collagen I (AB758P) and rabbit anti-human tenascin-C (AB19011) from Chemicon International (Temecula, Calif.). Cell layer: rabbit antibodies against PKCα (sc-208), PKCε (sc-214), activated JNK (sc-12882), activated Akt Thr 308 (sc-166646R) and caveolin-1 (sc-894) from Santa Cruz Biotechnology (Santa Cruz, Calif.); rabbit antibodies against ERK 1/2 (9102), activated ERK 1/2 (9106), JNK (9252), Akt (9272), MEK 1/2 (9122), and activated MEK 1/2 (9121) from Cell Signaling (Beverly, Mass.); mouse monoclonal anti-ASMA (clone 1A4) from Sigma (Saint Louis, Mo.), and mouse monoclonal anti-actin (MAB1501) from Chemicon International (Temecula, Calif.).
(§4) Immunoreactive bands were quantified by densitometry using the Image 1.32J NIH software. For statistical analysis the raw densitometric data were processed and analyzed using the Prism 3.0 (GraphPad Software Inc.) statistical analysis software.

[2] = system: scleroderma lung fibroblasts (SLF); experiment: Kinase (signaling) inhibitor treatment of SLF, Western blotting; assay type: cell-based, human; design: key to Collagen / Tenascin-C / ASMA / Ph-ERK / Ph-JNK / Ph-Akt: a decrease ↓; an increase ↑; no effect —; settings: for ASMA expression / Akt activation / ERK activation / JNK activation / collagen expression / tenascin-C expression: 10 μM inhibitor, result in words; for ASMA / Ph-Akt / Ph-ERK / Ph-JNK / Collagen / Tenascin-C: inhibitor 10 μM, serum-free medium, Western blotting; for ASMA / Ph-Akt / Ph-ERK / Ph-JNK: cell layer; for Collagen / Tenascin-C: culture medium
From the text: as §1, §2, §3, §4

[3] = system: scleroderma lung fibroblasts (SLF); experiment: Collagen and ASMA expression in SLF treated with CSD and its subdomains; assay type: cell-based, human; settings: for ASMA expression: peptides at 1, 3, and 5 μM; for inhibition of collagen expression / inhibition of ASMA expression: 5 μM peptide
Experimental: (§5) The indicated cell types (NLF and SLF) were cultured as described with 0, 1, 3, or 5 μM of the indicated peptides. Collagen in the medium and ASMA and actin (loading control) in the cell layer were detected by Western blotting. Blots were quantified densitometrically. The level of collagen and ASMA in cells treated with no peptide (divided by the level of actin) was set to 100 arbitrary units. Because SLF express higher levels of collagen and ASMA than do NLF, 100 arbitrary of collagen in SLF is equivalent to 195 arbitrary units of collagen in NLF and 100 arbitrary units of ASMA in SLF is equivalent to 255 arbitrary units of ASMA in NLF. The data presented are the average of the densitometric quantification of three independent experiments.
(§6) To compare the activity of CSD to its subdomains, five subdomains [A (82-88 amino acids), B (89-95), C (96-101), AB (82-95) and BC (89-101)] were synthesized in fusion with the Antennapedia internalization sequence and added to culture medium at 1, 3, and 5 μM. […] Very different results were obtained when examining ASMA expression.

[4] = system: normal lung fibroblasts (NLF); experiment: Collagen and ASMA expression in NLF treated with CSD and its subdomains; assay type: cell-based, human; settings: for ASMA expression: peptides at 1, 3, and 5 μM
Experimental: as §5, §6

eNOS = settings: endothelial cells; Bernatchez et al. (4); cited from earlier work
[5] = any concentration tested (1, 3, and 5 μM)

In the case of `O=c1[nH]c2ccccc2n1C1CCN(Cc2ccc(-c3nc4cc5[nH]cnc5cc4nc3-c3ccccc3)cc2)CC1` [Akt inhibitor VIII], the ASMA expression [1] is reported as “no effect”, the Akt activation [1] is reported as “inhibited” and the ERK activation [1] is reported as “enhanced”. For the same molecule, the JNK activation [1] was “no effect”, the collagen expression [1] was “inhibited” and the tenascin-C expression [1] was “inhibited”. The ASMA [1] was “—”, the Ph-Akt [1] was “↓” and the Ph-ERK [1] was “↑”. For the same molecule, the Ph-JNK [1] was “—”, the Collagen [1] was “↓” and the Tenascin-C [1] was “↓”. For the same molecule, the ASMA expression [2] was “inhibited”, the Akt activation [2] was “inhibited” and the ERK activation [2] was “enhanced”. For the same molecule, the JNK activation [2] was “enhanced”, the collagen expression [2] was “no effect” and the tenascin-C expression [2] was “no effect”. For the same molecule, the ASMA [2] was “↓”, the Ph-Akt [2] was “↓” and the Ph-ERK [2] was “↑”. For the same molecule, the Ph-JNK [2] was “↑”, the Collagen [2] was “—” and the Tenascin-C [2] was “—”.
With `O=c1cc(N2CCOCC2)oc2c(-c3ccccc3)cccc12` [LY294002] the ASMA expression [1] was “no effect”, the JNK activation [1] was “no effect” and the ASMA [1] was “—”. The Ph-Akt [1] was “↓”, the Ph-ERK [1] was “↑” and the Ph-JNK [1] was “—”. The Collagen [1] was “↓”, the Tenascin-C [1] was “↓” and the JNK activation [2] was “no effect”. The ASMA [2] was “↓”, the Ph-Akt [2] was “↓” and the Ph-ERK [2] was “↑”. For the same molecule, the Ph-JNK [2] was “—”, the Collagen [2] was “↓” and the Tenascin-C [2] was “↓”.
With `N#CC(=C(/N)Sc1ccccc1N)/C(C#N)=C(\N)Sc1ccccc1N` [Peptide U0126, U0126] the ASMA expression [1] was “unaffected; also recorded: little or no effect”, the Akt activation [1] was “little or no effect” and the ERK activation [1] was “blocked”. The JNK activation [1] was “little or no effect”, the collagen expression [1] was “blocked” and the tenascin-C expression [1] was “inhibited; also recorded: blocked”. For the same molecule, the ASMA [1] was “—”, the Ph-Akt [1] was “—” and the Ph-ERK [1] was “↓”. The Ph-JNK [1] was “—”, the Collagen [1] was “↓” and the Tenascin-C [1] was “↓”. For the same molecule, the ASMA expression [2] was “unaffected; also recorded: little or no effect”, the Akt activation [2] was “little or no effect” and the ERK activation [2] was “blocked”. For the same molecule, the JNK activation [2] was “little or no effect”, the collagen expression [2] was “blocked” and the tenascin-C expression [2] was “inhibited; also recorded: blocked”. The ASMA [2] was “—”, the Ph-Akt [2] was “—” and the Ph-ERK [2] was “↓”. The Ph-JNK [2] was “—”, the Collagen [2] was “↓” and the Tenascin-C [2] was “↓”.
In the case of `Oc1c2ccccc2c2c3c(cccc13)N=N2` [SP600125], the ASMA expression [1] is reported as “no effect”, the ASMA [1] is reported as “—” and the Ph-Akt [1] is reported as “↓”. For the same molecule, the Ph-ERK [1] was “↓”, the Ph-JNK [1] was “↓” and the Collagen [1] was “↓”. For the same molecule, the Tenascin-C [1] was “↓”, the ASMA [2] was “↓” and the Ph-Akt [2] was “↓”. The Ph-ERK [2] was “↓”, the Ph-JNK [2] was “↓” and the Collagen [2] was “↓”. For the same molecule, the Tenascin-C [2] was “↓”.
With “A: CSD subdomain A (82-88 amino acids) synthesized in fusion with the Antennapedia internalization sequence (DGIWKAS; also: fused to Antennapedia internalization sequence; UniProt Q03135 82-88, looked up, fragment)” the collagen expression [3, 5] was “did not inhibit”, the ASMA expression [3] was “did not inhibit” and the collagen expression [4, 5] was “did not inhibit”. For the same molecule, the ASMA expression [4] was “did not inhibit”.
For “AB: CSD subdomain AB (82-95) synthesized in fusion with the Antennapedia internalization sequence (DGIWKASFTTFTVT; also: fused to Antennapedia internalization sequence; UniProt Q03135 82-95, looked up, fragment)”, the eNOS activity (eNOS) is given as “also inhibited”, the “inhibition of collagen expression” value [3] is given as “approximately 50%” and the ASMA expression [3] is given as “did not inhibit”. The “inhibition of collagen expression” value ([4]; 5 μM peptide) was “approximately 50%” and the ASMA expression [4] was “did not inhibit”.
In the case of “B: CSD subdomain B (89-95) synthesized in fusion with the Antennapedia internalization sequence (FTTFTVT; also: fused to Antennapedia internalization sequence; UniProt Q03135 89-95, looked up, fragment)”, the eNOS activity (eNOS) is listed as “most strongly inhibited”, the collagen expression [3, 5] is listed as “did not inhibit” and the ASMA expression [3] is listed as “did not inhibit”. The collagen expression [4, 5] was “did not inhibit” and the ASMA expression [4] was “did not inhibit”.
In the case of “BC: CSD subdomain BC (89-101) synthesized in fusion with the Antennapedia internalization sequence (FTTFTVTKYWFYR; also: fused to Antennapedia internalization sequence; UniProt Q03135 89-101, looked up, fragment)”, the eNOS activity (eNOS) is given as “also inhibited”, the collagen expression ([3]; 3 μM peptide) is given as “completely inhibited” and the “inhibition of ASMA expression” value [3] is given as “about 80%”. The ASMA expression [3] was “inhibited”, the collagen expression ([4]; 3 μM peptide) was “completely inhibited” and the “inhibition of ASMA expression” value ([4]; 5 μM peptide) was “about 80%”. The ASMA expression [4] was “inhibited”.
In the case of “C: CSD subdomain C (96-101) synthesized in fusion with the Antennapedia internalization sequence (KYWFYR; also: fused to Antennapedia internalization sequence; UniProt Q03135 96-101, looked up, fragment)”, the “inhibition of ASMA expression” value [3] is reported as “approximately 50%”, the “inhibition of collagen expression” value [3] is reported as “approximately 50%” and the ASMA expression [3] is reported as “inhibited”. For the same molecule, the “inhibition of collagen expression” value ([4]; 5 μM peptide) was “approximately 50%”.
